Results taken from BindingDB's records for doi:10.7270/Q2J101NV (Burnham Center For Chemical Genomics, 2010).

These compounds were tested against T1, Alkaline phosphatase, tissue-nonspecific isozyme (Homo sapiens, UniProt P05186) (assay: activation of tissue-nonspecific alkaline phosphatase – biochemical, TNAP isozyme, mouse IAP uHTS hits, selectivity assay for mouse IAP activator project, dose response (AID 488880)).
T1 sequence (P05186 whole entry): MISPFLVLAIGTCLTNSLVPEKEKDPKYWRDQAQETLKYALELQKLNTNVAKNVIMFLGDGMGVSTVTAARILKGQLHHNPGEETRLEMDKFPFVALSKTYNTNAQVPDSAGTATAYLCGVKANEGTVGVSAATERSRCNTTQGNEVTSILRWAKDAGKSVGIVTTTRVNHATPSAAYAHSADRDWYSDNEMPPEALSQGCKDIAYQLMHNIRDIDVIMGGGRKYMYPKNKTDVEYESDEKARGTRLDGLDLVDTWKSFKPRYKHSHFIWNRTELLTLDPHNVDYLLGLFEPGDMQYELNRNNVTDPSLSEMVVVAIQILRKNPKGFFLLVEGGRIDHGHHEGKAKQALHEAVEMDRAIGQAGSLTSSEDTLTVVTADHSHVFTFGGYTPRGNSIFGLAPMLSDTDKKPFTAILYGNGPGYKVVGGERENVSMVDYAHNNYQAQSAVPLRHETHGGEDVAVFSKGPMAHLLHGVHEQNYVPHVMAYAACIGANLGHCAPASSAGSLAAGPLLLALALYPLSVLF

| EC50 [µM] | Compound |
| --- | --- |
| > 100 | O=C1CC(=O)c2c(O)cc(O)c(O)c2C1=O [4,5,7,8-tetrahydroxy-1,2-naphthoquinone] |
| 79.4 | O=C(NN=CC1=CC(=O)C(=O)CC1)NN=CC1=CC(=O)C(=O)CC1 [1,3-bis[[(Z)-(3-hydroxy-4-oxocyclohexa-2,5-dien-1-ylidene)methyl]amino]urea] |
| > 100 | C#CCOCCOCCOCCNc1nc(N2CCN(C(=O)CCCCCCCCCCNC(=O)[C@@H](CCC(=O)O)n3cc(CCCCCN)nn3)CC2)nc(N2CCN(C(=O)CCCCCCCCCCNC(=O)[C@H]([C@@H](C)CC)n3cc(CCCCCN)nn3)CC2)n1 [KI-KE] |
| 19.7 | CN(CCO)c1ccc(CN=Nc2ccc([N+](=O)[O-])cc2S(=O)(=O)Nc2ccccc2C(=O)O)cc1 |
| 56.1 | Cc1cc(=O)[nH]c(N=NCc2ccc(O)c(O)c2)n1 [MLS001194906] |
